# Laboratory results reported in patent US20250368666A1, “INDAZOLE COMPOUNDS” (TYRA BIOSCIENCES, INC., priority 2022, published 2025).
# pIC50: −log10 of the molar value. Like-named read-outs stand apart in the source and are kept apart here.
# Columns and labels:
# [1] = molecular target: T1, FGFR3 (Homo sapiens, UniProt P22607); assay: Kinase binding assay (kinase-tagged T7 phage, affinity beads, qPCR), Kd; details: read-out: FGFR3 (Kd nM)
# T1 construct: made in house; host or cells: E. coli (BL21-derived), T7 phage
# Procedure, shortened: (§1)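 Phage-tagged kinase capture on small-molecule affinity resin, compound competition, qPCR quantitation; Kd from Levenberg-Marquardt Hill fit.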
# [2] = molecular target: T2, FGFR1 (Homo sapiens, UniProt P11362); assay: as above; details: read-out: FGFR1 (Kd nM)
# T2 construct: made in house; host or cells: E. coli (BL21-derived), T7 phage
# Procedure, shortened: as §1
# [3] = system: KG-1 cell line (FGFR 1-fusion); assay: Cancer cell line cell viability assay (Cell Titer-Glo), 72 hr; format: cell-based; details: Homo sapiens, KG-1, KG-1 cell line (FGFR1-fusion)
# From the text: (§2) Experimental Purpose: To detect the change of intracellular ATP by Cell Titer-Glo® and to evaluate the inhibitory effect of the compounds on cancer cell lines by determining the in vitro IC50 value of the compounds.
# (§3) Cell Titer-Glo® 2.0 Luminescent cell viability assay reagent was purchased from Promega (Madison, WI). KG-1, KATO-III, and MDA-MB-453 cell lines were purchased from American Type Culture Collection (Manassas, VA). RT112/84 cell line was purchased from Millipore-Sigma (St. Louis, MO). HuH7 cells were purchased from Seikisui Xenotech (Kansas City, KS). RT112/84 and MDA-MB-453 cells were cultured in RPMI1640 media supplemented with 10% fetal bovine serum. KG-1 and KATO-III cell lines were cultured in IMDM media supplemented with 20% FBS. HuH7 cells were cultured in IMDM media supplemented with 10% FBS. Cultures were maintained at 37° C. in a humidified atmosphere of 5% CO2 and 95% air.
# (§4) Cell Viability Assay Procedure: Cells were plated in 96-well clear bottom/white plates (Corning #3903) at a range of densities depending on the optimal assay window (5,000-20,000 cells/well in […] of media), incubated overnight. The next day, test compound DMSO stock solutions were made at 10 mM and […] final concentration. Compounds were then added to cells in a 9-dose, 4-fold dilution series starting at 3 μM with an HP 300e Digital Dispenser (each dose was applied in triplicate). DMSO was backfilled to each well up to 301 nL total volume of test compound+DMSO, and a total of 301 nL DMSO was added to a control/no test compound well in triplicate. The cells in cell culture plates were incubated with the compounds at 37° C. and 5% CO2 for 72 hours-120 hours depending on the cell line. Then 50 μl of Cell Titer Glo 2.0 reagent was added to each well of the cell culture plates. The contents were covered from light and mixed on an orbital shaker at room temperature for minimum of 10 min. Luminescence was recorded by a Clariostar Plus Microplate Reader (BMG Labtech, Cary, NC). Cells were assessed as a percentage of DMSO only treated control cells. Curves were plotted and IC50 values were calculated using the GraphPad Prism 9 program based on a sigmoidal dose-response equation (log (inhibitor) vs. response—Variable slope, 4-parameter).
# [4] = system: KATO-III cell line (FGFR2 amplification); assay: as above; format: cell-based; details: Homo sapiens, KATO III
# From the text: as §2, §3, §4
# [5] = system: RT112/84 cell line (FGFR3-fusion); assay: as above; format: cell-based; details: Homo sapiens, RT112/84, RT112/84 cell line (FGFR3-fusion)
# From the text: as §2, §3, §4
# [6] = kinase binding assay, 11-point 3-fold dilution series
# T1 sequence (P22607 23-806): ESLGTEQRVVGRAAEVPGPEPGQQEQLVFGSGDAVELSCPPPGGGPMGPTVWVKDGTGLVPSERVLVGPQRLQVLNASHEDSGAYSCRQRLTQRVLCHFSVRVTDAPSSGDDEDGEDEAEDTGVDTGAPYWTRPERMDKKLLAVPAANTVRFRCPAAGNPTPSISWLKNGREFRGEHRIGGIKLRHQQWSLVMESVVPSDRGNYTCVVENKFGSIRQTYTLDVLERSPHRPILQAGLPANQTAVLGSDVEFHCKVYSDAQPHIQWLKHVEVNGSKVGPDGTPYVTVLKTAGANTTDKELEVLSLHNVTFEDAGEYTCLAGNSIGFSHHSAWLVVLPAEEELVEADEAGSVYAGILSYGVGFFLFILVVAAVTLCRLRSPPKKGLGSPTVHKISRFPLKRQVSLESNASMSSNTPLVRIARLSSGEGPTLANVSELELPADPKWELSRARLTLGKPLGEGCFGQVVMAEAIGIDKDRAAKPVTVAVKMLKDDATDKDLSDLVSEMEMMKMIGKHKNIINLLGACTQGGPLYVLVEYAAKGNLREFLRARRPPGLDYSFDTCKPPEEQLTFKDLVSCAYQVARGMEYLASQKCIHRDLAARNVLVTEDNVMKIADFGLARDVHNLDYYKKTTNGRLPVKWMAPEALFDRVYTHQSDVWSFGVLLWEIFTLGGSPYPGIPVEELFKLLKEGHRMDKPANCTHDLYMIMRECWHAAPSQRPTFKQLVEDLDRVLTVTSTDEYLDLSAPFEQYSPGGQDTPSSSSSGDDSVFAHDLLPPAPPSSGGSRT
# T2 sequence (P11362 22-822): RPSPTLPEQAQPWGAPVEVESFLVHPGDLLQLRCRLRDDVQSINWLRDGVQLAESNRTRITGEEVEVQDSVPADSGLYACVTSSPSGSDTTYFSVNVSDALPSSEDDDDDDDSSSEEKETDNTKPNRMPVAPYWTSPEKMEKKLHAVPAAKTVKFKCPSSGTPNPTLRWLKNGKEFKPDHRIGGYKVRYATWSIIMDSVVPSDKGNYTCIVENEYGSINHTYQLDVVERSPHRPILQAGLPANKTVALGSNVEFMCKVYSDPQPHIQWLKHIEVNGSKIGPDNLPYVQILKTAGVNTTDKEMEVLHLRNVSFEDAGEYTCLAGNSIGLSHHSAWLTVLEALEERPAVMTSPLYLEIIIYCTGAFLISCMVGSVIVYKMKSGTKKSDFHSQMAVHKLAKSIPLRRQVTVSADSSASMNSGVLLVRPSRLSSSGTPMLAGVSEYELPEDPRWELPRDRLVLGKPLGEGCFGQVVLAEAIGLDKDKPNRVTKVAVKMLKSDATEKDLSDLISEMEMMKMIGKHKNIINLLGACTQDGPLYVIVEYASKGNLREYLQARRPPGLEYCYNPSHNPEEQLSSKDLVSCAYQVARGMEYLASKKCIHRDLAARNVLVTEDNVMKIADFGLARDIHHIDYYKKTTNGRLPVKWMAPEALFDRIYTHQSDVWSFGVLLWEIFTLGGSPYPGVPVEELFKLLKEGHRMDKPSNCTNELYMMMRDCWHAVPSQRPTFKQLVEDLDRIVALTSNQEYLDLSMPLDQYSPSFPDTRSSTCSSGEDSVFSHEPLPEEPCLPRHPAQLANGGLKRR
SMILES,Kd [1] [nM],Kd [2] [nM],pIC50 [3],pIC50 [4],pIC50 [5],"Kd [1, 6] [nM]","Kd [2, 6] [nM]"
"C[C@@H](Oc1ccc2[nH]nc(-c3ccc(N4CC(C)(NC(=O)CN(C)C)C4)nn3)c2c1)c1c(Cl)cncc1Cl [Example 297, (R)—N-(1-(6-(5-(1-(3,5-dichloropyridin-4-yl)ethoxy)-1H-indazol-3-yl)pyridazin-3-yl)-3-methylazetidin-3-yl)-2-(dimethylamino)acetamide]",1 to 50,1 to 50,7.30 to 10.00,7.30 to 10.00,7.30 to 10.00,–,–
"C[C@@H](Oc1ccc2[nH]nc(-c3cnc(N4CC(N)(CCC#N)C4)c(F)c3)c2c1)c1c(Cl)cncc1Cl [Example 298, (R)-3-(3-amino-1-(5-(5-(1-(3,5-dichloropyridin-4-yl)ethoxy)-1H-indazol-3-yl)-3-fluoropyridin-2-yl)azetidin-3-yl)propanenitrile]",1 to 50,1 to 50,6.70 to 7.30,7.30 to 10.00,7.30 to 10.00,–,–
"CCC1(N)CN(c2ccc(-c3n[nH]c4ccc(O[C@H](C)c5c(Cl)cncc5Cl)cc34)nn2)C1 [Example 299, (R)-1-(6-(5-(1-(3,5-Dichloropyridin-4-yl)ethoxy)-1H-indazol-3-yl)pyridazin-3-yl)-3-ethylazetidin-3-amine]",1 to 50,1 to 50,6.70 to 7.30,6.70 to 7.30,7.30 to 10.00,–,–
"CNC(=O)C1(N)CN(c2ccc(-c3n[nH]c4ccc(O[C@H](C)c5c(Cl)cncc5Cl)cc34)nn2)C1 [Example 300, (R)-3-amino-1-(6-(5-(1-(3,5-dichloropyridin-4-yl)ethoxy)-1H-indazol-3-yl)pyridazin-3-yl)-N-methylazetidine-3-carboxamide]",1 to 50,1 to 50,< 6.00,6.70 to 7.30,7.30 to 10.00,–,–
"C[C@@H](Oc1ccc2[nH]nc(-c3ccc(N4CC(N)(C(=O)N(C)C)C4)nn3)c2c1)c1c(Cl)cncc1Cl [Example 301, (R)-3-Amino-1-(6-(5-(1-(3,5-dichloropyridin-4-yl)ethoxy)-1H-indazol-3-yl)pyridazin-3-yl)-N,N-dimethylazetidine-3-carboxamide]",1 to 50,1 to 50,6.70 to 7.30,7.30 to 10.00,7.30 to 10.00,–,–
"C[C@@H](Oc1ccc2[nH]nc(-c3cnc(N4CC(C)(NCCF)C4)c(F)c3)c2c1)c1c(Cl)cncc1Cl [Example 303, (R)-1-(5-(5-(1-(3,5-dichloropyridin-4-yl)ethoxy)-1H-indazol-3-y1)-3-fluoropyridin-2-yl)-N-(2-fluoroethyl)-3-methylazetidin-3-amine]",1 to 50,1 to 50,6.70 to 7.30,7.30 to 10.00,7.30 to 10.00,–,–
"COc1cc2[nH]nc(-c3cnc(N4CC(C)(N)C4)c(F)c3)c2cc1O[C@H](C)c1c(Cl)cncc1Cl [Example 304, (R)-1-(5-(5-(1-(3,5-dichloropyridin-4-yl)ethoxy)-6-methoxy-1H-indazol-3-yl)-3-fluoropyridin-2-yl)-3-methylazetidin-3-amine]",1 to 50,1 to 50,6.70 to 7.30,7.30 to 10.00,7.30 to 10.00,–,–
"C[C@@H](Oc1ccc2[nH]nc(-c3ccc(N4CC(N)(Cc5ccn(C)n5)C4)nn3)c2c1)c1c(Cl)cncc1Cl [Example 306, (R)-1-(6-(5-(1-(3,5-dichloropyridin-4-yl)ethoxy)-1H-indazol-3-yl)pyridazin-3-yl)-3-((1-methyl-1H-pyrazol-3-yl)methyl)azetidin-3-amine]",1 to 50,1 to 50,6.00 to 6.70,6.70 to 7.30,7.30 to 10.00,–,–

# Second part, the compound after the results:
Kd [1] [nM],Kd [2] [nM],pIC50 [3],pIC50 [4],pIC50 [5],"Kd [1, 6] [nM]","Kd [2, 6] [nM]",SMILES
1 to 50,1 to 50,6.00 to 6.70,6.70 to 7.30,7.30 to 10.00,–,–,"CC(C)OC(=O)C1(N)CN(c2ccc(-c3n[nH]c4ccc(O[C@H](C)c5c(Cl)cncc5Cl)cc34)nn2)C1 [Example 308, (R)-isopropyl 3-amino-1-(6-(5-(1-(3,5-dichloropyridin-4-yl)ethoxy)-1H-indazol-3-yl)pyridazin-3-yl)azetidine-3-carboxylate]"
1 to 50,1 to 50,6.00 to 6.70,6.70 to 7.30,7.30 to 10.00,–,–,"C[C@@H](Oc1ccc2[nH]nc(-c3ccc(N4CC(C)(NCC(=O)N(C)C)C4)nn3)c2c1)c1c(Cl)cncc1Cl [Example 314, (R)-2-((1-(6-(5-(1-(3,5-dichloropyridin-4-yl)ethoxy)-1H-indazol-3-yl)pyridazin-3-yl)-3-methylazetidin-3-yl)amino)-N,N-dimethylacetamide]"
1 to 50,1 to 50,6.70 to 7.30,6.70 to 7.30,7.30 to 10.00,–,–,"CCOCC1(N)CN(c2ccc(-c3n[nH]c4ccc(O[C@H](C)c5c(Cl)cncc5Cl)cc34)nn2)C1 [Example 316, (R)-1-(6-(5-(1-(3,5-dichloropyridin-4-yl)ethoxy)-1H-indazol-3-yl)pyridazin-3-yl)-3-(ethoxymethyl)azeti-din-3-amine]"
1 to 50,1 to 50,6.00 to 6.70,6.70 to 7.30,7.30 to 10.00,–,–,"COCC1(N)CN(c2ccc(-c3n[nH]c4ccc(O[C@H](C)c5c(Cl)cncc5Cl)cc34)nn2)C1 [Example 376, (R)-1-(6-(5-(1-(3,5-dichloropyridin-4-yl)ethoxy)-1H-indazol-3-yl)pyridazin-3-yl)-3-(methoxy-methyl)aze-tidin-3-amine]"
1 to 50,1 to 50,6.00 to 6.70,6.70 to 7.30,7.30 to 10.00,–,–,"CC(C)OCC1(N)CN(c2ccc(-c3n[nH]c4ccc(O[C@H](C)c5c(Cl)cncc5Cl)cc34)nn2)C1 [Example 377, (R)-1-(6-(5-(1-(3,5-dichloropyridin-4-yl)ethoxy)-1H-indazol-3-yl)pyridazin-3-yl)-3-(isopropoxy-methyl)a-zetidin-3-amine]"
1 to 50,1 to 50,< 6.00,6.70 to 7.30,7.30 to 10.00,–,–,"CC(C)=CCC1(N)CN(c2ccc(-c3n[nH]c4ccc(O[C@H](C)c5c(Cl)cncc5Cl)cc34)nn2)C1 [Example 378, (R)-1-(6-(5-(1-(3,5-dichloropyridin-4-yl)ethoxy)-1H-indazol-3-yl)pyridazin-3-yl)-3-(3-methylbut-2-en-1-yl)azetidin-3-amine]"
–,–,6.70 to 7.30,6.70 to 7.30,7.30 to 10.00,1 to 50,1 to 50,"C[C@H](O)CC1(N)CN(c2ncc(-c3n[nH]c4ccc(O[C@H](C)c5c(Cl)cncc5Cl)cc34)cc2F)C1 [Example 384, (S)-1-(3-amino-1-(5-(5-((R)-1-(3,5-dichloropyridin-4-yl)ethoxy)-1H-indazol-3-yl)-3-fluoropyridin-2-yl)azetidin-3-yl)propan-2-ol]"
–,–,6.70 to 7.30,7.30 to 10.00,7.30 to 10.00,1 to 50,1 to 50,"C[C@@H](Oc1ccc2[nH]nc(-c3ccc(N4CCC(N)(CS(C)(=O)=O)CC4)nn3)c2c1)c1c(Cl)cncc1Cl [Example 386, (R)-1-(6-(5-(1-(3,5-dichloropyridin-4-yl)ethoxy)-1H-indazol-3-yl)pyridazin-3-yl)-4-((methylsulfonyl)methyl)piperidin-4-amine]"
–,–,6.00 to 6.70,6.70 to 7.30,7.30 to 10.00,1 to 50,1 to 50,"C[C@@H](Oc1ccc2[nH]nc(-c3ccc(N4CC(N)(CS(C)(=O)=O)C4)nn3)c2c1)c1c(Cl)cncc1Cl [Example 387, (R)-1-(6-(5-(1-(3,5-dichloropyridin-4-yl)ethoxy)-1H-indazol-3-yl)pyridazin-3-yl)-3-((methylsulfonyl)meth-yl)azetidin-3-amine]"
–,–,6.00 to 6.70,6.70 to 7.30,7.30 to 10.00,1 to 50,1 to 50,"C[C@@H](Oc1ccc2[nH]nc(-c3ccc(N4CC(N)(c5ccn(C)n5)C4)nn3)c2c1)c1c(Cl)cncc1Cl [Example 388, (R)-1-(6-(5-(1-(3,5-dichloropyridin-4-yl)ethoxy)-1H-indazol-3-yl)pyridazin-3-yl)-3-(1-methyl-1H-pyrazol-3-yl)azetidin-3-amine]"
